{"source": "patent US4590275A", "about": "“Benzoheterazolo[3,2-a]quinolinium salts” (Commonwealth of Puerto Rico, priority 1983, dated 1986)", "key": {"L1210 murine leukemia": {"test_system": "L1210 murine leukemia", "conditions": "cited from earlier work"}, "P388 murine leukemia": {"test_system": "P388 murine leukemia", "conditions": "cited from earlier work"}, "DNA synthesis": {"test_system": "DNA synthesis", "conditions": "probably by interacting with A:T base pairs; cited from earlier work"}, "KB cells": {"test_system": "KB cells", "assay": "Cytotoxic activity in vitro, KB cells", "type": "cell-based", "conditions": "for IC50: Homo sapiens, KB cells, average of at least three experiments, read-out: ED50 KB", "protocol": "(§1) It appears that structural variations such as replacement of sulfur for oxygen or selenium as well as changes in the electronic nature of the substituents are critical factors in eliciting the inhibitory activity. Since in general satisfactory cytotoxic activity \"in vitro\" corresponds to good antitumor activity in vivo, the antitumor activity of compound Ib was assessed in mice bearing Ehrlich ascites tumor. A range of doses from 400 mg/kg to 90 mg/kg were tested, each given in a one dose basis, 24 h after tumor implantation. […] Compound Ib was also tested against P388 leukemia in mice.\n(§2) HeLa-229 and KB cells were used for in vitro tissue culture cytotoxicity experiments. Cells were grown in monolayer culture in Difco TC Minimal Medium Eagle and supplemented with 10% foetal calf serum (Flow). Subculturing was performed every 6-7 days. Ehrlich ascites tumor was maintained in serial passages at two week intervals in Albino Swiss mice by intraperitoneal implant.\n(§3) The method was essentially as described in Cancer Chemotherapy Rep. Part 3, 3, 2 (1972); NCl Monograph 45, p. 150. Drugs were always suspended in sterile 0.5% carboxymethyl cellulose. As a positive control 1 μM 6-mercaptopurine was always included."}, "HeLa cells": {"test_system": "HeLa cells", "assay": "Cytotoxic activity in vitro, HeLa cells", "type": "cell-based", "protocol": "as §1, §2, §3"}, "Ehrlich ascites tumor": {"test_system": "Ehrlich ascites tumor", "assay": "Antitumor activity against Ehrlich ascites tumor in mice", "type": "in vivo, female Albino Swiss mice", "conditions": "for death of mice: one dose; for T/C: Day 12", "protocol": "as §1, §2\n(§4) The mice used through these experiments were female Albino Swiss mice.\n(§5) Each group consisted of five to six weight matched animals. To begin the antitumor experiment 1×10^6 viable cells (trypan blue exclusion test) were injected ip. Test compounds were suspended in 0.9% (w/v) NaCl solution containing 0.10% (v/v) Tween 80 at the higher concentration. Lower doses were obtained by serial dilutions with 0.9% NaCl and injected ip in a volume of 0.5 ml in a single dose 24 h after implantation of the tumor. Animal body weights were recorded daily during the next 30 days and the survival was followed for the next 60 days. The P388 leukemia assay was performed according to standard protocol, Cancer Chemotherapy Rep.; Part 3, 3, 2 (1972); NCl Monograph 45, p. 150.\n(§6) ^a Average of three tests except when noted.\n(§7) ^b and ^c Assay performed according to procols of NCl.\n(§8) ^d Treatment given ip on Day 1.\n^f Toxicity = LTS number of toxic deaths/number of treated mice.\n^g LTS = long term survivors (60 days)/number of treated mice."}, "P388 leukemia": {"test_system": "P388 leukemia", "assay": "Antitumor activity against P388 leukemia in mice", "type": "in vivo", "protocol": "as §1, §4, §5, §6, §7\n5Fluorouracil was used as control (200 mg/kg/ing).\nas §8\n^h Median survival time of treated mice/median survival of control\n× 100. Values of T/C 120 denote activity."}, "[1]": {"test_system": "Herpes simplex virus (HSV-1) infected KB cells", "assay": "Protein synthesis in HSV-1 infected and mock-infected KB cells", "type": "cell-based", "conditions": "for inhibition of translation (protein synthesis): infected vs mock-infected KB cells", "protocol": "In addition, herpes simplex virus (HSV-1) infected KB cells and KB mock-infected cells were assayed for protein synthesis in the presence of Ib at different concentrations.\nScreening of antibiotic action on protein synthesis in virus infected cells.\nHerpes simplex virus (HSV-1) infected KB cells and KB mock-infected cells were assayed for protein synthesis in the presence of nitrobenzothiazolo quinolium perchlorate at different concentrations. After infection or mock-infection nitrobenzothiazolo quinolium perchlorate was added at the concentration of 100, 50, 25, 5 and 1.5 μg/ml and incubated for 48 hours.\nAfter the incubation time, protein synthesis was measured by addition of 0.1 μCi^35 S methionine ([…]; 5.4 mCl/ml) and incubated for 1 hour. After incubation the medium was removed, the reaction stopped and the radioactivity estimated in an Intertechnique liquid scintillation spectrometer.\nThe value 100% of control represents 72,484 cpm (mock-infected KB cells)."}, "[2]": {"conditions": "Ehrlich ascites, 90 mg/kg ip on Day 1, two test results"}, "[3]": {"conditions": "Ehrlich ascites, 100 mg/kg ip on Day 1, two test results"}, "[4]": {"conditions": "Ehrlich ascites, 150 mg/kg ip on Day 1"}, "[5]": {"conditions": "Ehrlich ascites, 200 mg/kg ip on Day 1"}, "[6]": {"conditions": "Ehrlich ascites, 250 mg/kg ip on Day 1"}, "[7]": {"conditions": "Ehrlich ascites, 400 mg/kg ip on Day 1"}}, "note": "Like-named read-outs stand apart in the source and are kept apart here.", "data": [{"smiles": "COc1cc2c[n+](C)c3c4cc5c(cc4ccc3c2cc1OC)OCO5", "note": "[nitidine]", "values": [{"measurement": "antitumor activity", "setting": "L1210 murine leukemia", "value": "potent antitumor activity"}, {"measurement": "antitumor activity", "setting": "P388 murine leukemia", "value": "potent antitumor activity"}, {"measurement": "inhibition of DNA synthesis", "setting": "DNA synthesis", "value": "inhibit DNA synthesis"}]}, {"smiles": "COc1cc2c(ccc3c4cc(OC)c(OC)cc4c[n+](C)c23)cc1O", "note": "[fagaronine]", "values": [{"measurement": "antitumor activity", "setting": "L1210 murine leukemia", "value": "potent antitumor activity"}, {"measurement": "antitumor activity", "setting": "P388 murine leukemia", "value": "potent antitumor activity"}, {"measurement": "inhibition of DNA synthesis", "setting": "DNA synthesis", "value": "inhibit DNA synthesis"}]}, {"smiles": "O=[N+]([O-])c1ccc2c(ccc3[se]c4ccccc4[n+]32)c1.[O-][Cl+3]([O-])([O-])[O-]", "note": "[Il, 3-Nitrobenzoselenazolo(3,2-a)quinolinium Perchlorate]", "values": [{"measurement": "IC50", "setting": "KB cells", "value": 100, "unit": "µg/mL"}]}, {"smiles": "O=[N+]([O-])c1ccc2c(ccc3sc4ccccc4[n+]32)c1.[O-][Cl+3]([O-])([O-])[O-]", "note": "[Ib, 3-Nitrobenzothiazolo(3,2-a)quinolinium Perchlorate]", "values": [{"measurement": "IC50", "setting": "KB cells", "value": 0.61, "unit": "µg/mL"}, {"measurement": "cytotoxicity, ranking among compounds I", "setting": "KB cells; KB screen", "value": "highest cytotoxicity"}, {"measurement": "cytotoxicity, ranking among compounds I", "setting": "HeLa cells; HeLa screen", "value": "highest cytotoxicity"}, {"measurement": "IC50", "setting": "HeLa cells; Homo sapiens, HeLa cells, average of at least three experiments, read-out: ED50 HeLa", "value": 0.9, "unit": "µg/mL"}, {"measurement": "death of mice", "setting": "Ehrlich ascites tumor; 300 mg/kg", "value": "died within 24 h of injection"}, {"measurement": "death of mice", "setting": "Ehrlich ascites tumor; 400 mg/kg", "value": "died within 24 h of injection"}, {"measurement": "T/C", "setting": "Ehrlich ascites tumor; [2]", "value": 57.3, "unit": "%"}, {"measurement": "LTS, long term survivors (60 days)/number of treated mice", "setting": "Ehrlich ascites tumor; [2]", "value": "5/10"}, {"measurement": "Survival", "setting": "Ehrlich ascites tumor; [2]", "value": "3/5"}, {"measurement": "T/C", "setting": "Ehrlich ascites tumor; [3]", "value": 35.8, "unit": "%"}, {"measurement": "LTS, long term survivors (60 days)/number of treated mice", "setting": "Ehrlich ascites tumor; [3]", "value": "12/12"}, {"measurement": "Survival", "setting": "Ehrlich ascites tumor; [3]", "value": "6/6"}, {"measurement": "LTS, long term survivors (60 days)/number of treated mice", "setting": "Ehrlich ascites tumor; [4]", "value": "15/18"}, {"measurement": "Survival", "setting": "Ehrlich ascites tumor; [4]", "value": "6/6"}, {"measurement": "T/C", "setting": "Ehrlich ascites tumor; [4]", "value": -0.4, "unit": "%"}, {"measurement": "LTS, long term survivors (60 days)/number of treated mice", "setting": "Ehrlich ascites tumor; [5]", "value": "18/18"}, {"measurement": "Survival", "setting": "Ehrlich ascites tumor; [5]", "value": "6/6"}, {"measurement": "T/C", "setting": "Ehrlich ascites tumor; [5]", "value": -6.9, "unit": "%"}, {"measurement": "LTS, long term survivors (60 days)/number of treated mice", "setting": "Ehrlich ascites tumor; [6]", "value": "15/18"}, {"measurement": "Survival", "setting": "Ehrlich ascites tumor; [6]", "value": "6/6"}, {"measurement": "T/C", "setting": "Ehrlich ascites tumor; [6]", "value": -2.5, "unit": "%"}, {"measurement": "Survival", "setting": "Ehrlich ascites tumor; [7]", "value": "0/6"}, {"measurement": "Toxicity (toxic deaths/number of treated mice)", "setting": "Ehrlich ascites tumor; [7]", "value": "6/6"}, {"measurement": "T/C value", "setting": "Ehrlich ascites tumor; Ehrlich ascites, most effective dose 200 mg/kg, one dose 24 h after tumor implantation", "value": -6.2}, {"measurement": "Survival", "setting": "P388 leukemia; 200 mg/kg ip on Day 1", "value": "6/6"}, {"measurement": "T/C (median survival time of treated mice/median survival of control × 100)", "setting": "P388 leukemia; 200 mg/kg ip on Day 1, values of T/C 120 denote activity", "value": 218}, {"measurement": "Survival", "setting": "P388 leukemia; 400 mg/kg ip on Day 1", "value": "0/6"}, {"measurement": "Toxicity", "setting": "P388 leukemia; 400 mg/kg ip on Day 1", "value": "6/6"}, {"measurement": "virus yield", "setting": "[1]", "value": "drastic reduction on virus yield"}, {"measurement": "virus yield", "setting": "[1]; 5×10^-4 M, 48 hours", "value": "drastic reduction on virus yield"}, {"measurement": "inhibition of translation (protein synthesis)", "setting": "[1]; 5×10^-4 M, 48 hours", "value": "inhibited preferentially translation on infected cells"}, {"measurement": "inhibition of translation (protein synthesis)", "setting": "[1]", "value": "inhibited preferentially translation on infected cells"}]}, {"smiles": "COc1cc2cc3c4cc(OC)c(OC)cc4cc[n+]3c(C)c2cc1OC", "note": "[Coralyne]", "values": [{"measurement": "antitumor activity", "setting": "L1210 murine leukemia", "value": "exhibits antitumor activity"}, {"measurement": "antitumor activity", "setting": "P388 murine leukemia", "value": "exhibits antitumor activity"}]}]}
